From article PMC3968008 (PLoS ONE, 2014)
Values after ≈ are worked out from the molar mass of the structure shown. Square brackets hold non-standard residues; d marks the D form. Peptide text beside a SMILES is read from it.

Key:
[1] = test system: E. coli (ATCC25922); assay: microbe, parasite or virus in culture; assay type: cell-based, Escherichia coli; conditions: ATCC25922, 48 h
Method: (§1) Antimicrobial activity of the peptides was evaluated against Escherichia coli JCM 5491, Pseudomonas aeruginosa JCM 6119, Staphylococcus aureus JCM2874, Salmonella Typhimurium JCM1652, Acinetobacter baumannii JCM6841, Bacteroides fragilis JCM11019, Fusobacterium nucleatum JCM11025, Penicillium glabrum JCM22534, Fusarium solani JCM11383, Alternaria alternata JCM5800 (RIKEN, A research institution for basic and applied science in Japan), Micrococcus luteus NBRC13867, Bacillus subtilis NBRC3134, Propionibacterium acnes NBRC107605, Trichophyton mentagrophytes NBRC6124, Trichophyton rubrum NBRC9185, Candida krusei NBRC1395 (National Institute of Technology and Evaluation, Tokyo, Japan), Salmonella Enteritidis IID604 (The Institute of Medical Science, The University of Tokyo, Tokyo, Japan). Additionally, the clinical isolates (Drug-sensitive/resistant Pseudomonas aeruginosa and Staphylococcus aureus, Osaka University Hospital) and multidrug-resistant Acinetobacter baumannii (ATCC BAA-1605) were used. […] Serial two-fold dilutions of peptide were added to 0.1 ml of medium containing each type of bacteria and fungi at concentrations of 0.4×10^4 – 5×10^4 CFU/ml. The plates were incubated at 37°C with vigorous shaking for 24 or 48 hours. The MICs were determined as the lowest concentrations of peptide that inhibited visible bacterial growth.

[2] = test system: S. aureus (ATCC29213); assay: microbe, parasite or virus in culture; assay type: cell-based, Staphylococcus aureus; conditions: ATCC29213, 48 h
Method: as §1

[3] = test system: Micrococcus luteus; assay: microbe, parasite or virus in culture; assay type: cell-based; conditions: 48 h
Method: as §1

[4] = test system: Bacillus subtilis; assay: microbe, parasite or virus in culture; assay type: cell-based; conditions: 48 h
Method: (§2) Antimicrobial activity of the peptides was evaluated against Escherichia coli JCM 5491, Pseudomonas aeruginosa JCM 6119, Staphylococcus aureus JCM2874, Salmonella Typhimurium JCM1652, Acinetobacter baumannii JCM6841, Bacteroides fragilis JCM11019, Fusobacterium nucleatum JCM11025, Penicillium glabrum JCM22534, Fusarium solani JCM11383, Alternaria alternata JCM5800 (RIKEN, A research institution for basic and applied science in Japan), Micrococcus luteus NBRC13867, Bacillus subtilis NBRC3134, Propionibacterium acnes NBRC107605, Trichophyton mentagrophytes NBRC6124, Trichophyton rubrum NBRC9185, Candida krusei NBRC1395 (National Institute of Technology and Evaluation, Tokyo, Japan), Salmonella Enteritidis IID604 (The Institute of Medical Science, The University of Tokyo, Tokyo, Japan). […] Serial two-fold dilutions of peptide were added to 0.1 ml of medium containing each type of bacteria and fungi at concentrations of 0.4×10^4 – 5×10^4 CFU/ml. The plates were incubated at 37°C with vigorous shaking for 24 or 48 hours. The MICs were determined as the lowest concentrations of peptide that inhibited visible bacterial growth.

[5] = test system: Salmonella Enteritidis; assay: microbe, parasite or virus in culture; assay type: cell-based; conditions: 48 h
Method: as §2

[6] = test system: Salmonella Typhimurium; assay: microbe, parasite or virus in culture; assay type: cell-based; conditions: murium, 48 h
Method: as §2

[7] = test system: Acinetobacter baumannii; assay type: cell-based; conditions: 48 h
Method: as §2

[8] = test system: Bacteroides fragilis; assay: microbe, parasite or virus in culture; assay type: cell-based; conditions: 48 h
Method: as §1

[9] = test system: Fusarium solani; assay: microbe, parasite or virus in culture; assay type: cell-based; conditions: 48 h
Method: as §1

[10] = test system: Alternaria alternata; assay: microbe, parasite or virus in culture; assay type: cell-based; conditions: 48 h
Method: as §1

[11] = test system: Trichophyton mentagrophytes; assay: microbe, parasite or virus in culture; assay type: cell-based; conditions: 48 h
Method: as §1

[12] = test system: Trichophyton rubrum; assay: microbe, parasite or virus in culture; assay type: cell-based; conditions: 48 h
Method: as §1

[13] = test system: Candida krusei; assay: microbe, parasite or virus in culture; assay type: cell-based; conditions: 48 h
Method: as §1

[14] = test system: Carbapenem-resistant Pseudomonas aeruginosa; assay type: cell-based; conditions: 48 h
Method: as §2

[15] = test system: Multidrug-resistant Acinetobacter baumannii; assay type: cell-based; conditions: 48 h
Method: as §2

[16] = peptide 500 μg/ml, 37°C, 3 or 10 minutes, acetonitrile/0.1% trifluoroacetate precipitation, HPLC, N = 2 (Fig. 1E)
Method: In vitro stability studies were performed by incubating the peptide with rat or human serum. Human sera (Pool of donors, 5 men and 5 women) were commercially purchased from KAC (Kyoto, Japan), which has been permitted only for experiment. We don't use the human biological specimens without the documented informed consent. Rat sera were collected from rats. The peptide (500 μg/ml) was added to serum (300 μL) and incubated at 37°C. A part of samples (90 μL) were taken, and the proteins were precipitated with acetonitrile containing 0.1% trifluoroacetate (200 μL). The precipitate was separated by centrifugation. The supernatants were analyzed by high-performance liquid chromatography (HPLC).

CC[C@H](C)[C@H](NC(=O)[C@H](CC(C)C)NC(=O)[C@H](CCCCN)NC(=O)[C@H](CC(C)C)NC(=O)[C@@H](N)CCSC)C(=O)N[C@@H](Cc1ccccc1)C(=O)N[C@@H](CC(C)C)C(=O)N[C@@H](Cc1c[nH]cn1)C(=O)N[C@@H](CCCNC(=N)N)C(=O)N[C@@H](CC(C)C)C(=O)N[C@@H](CCCCN)C(=O)N[C@@H](CCCNC(=N)N)C(=O)N[C@@H](CCSC)C(=O)N[C@@H](CCCNC(=N)N)C(=O)N[C@@H](CCCCN)C(=O)N[C@@H](CCCNC(=N)N)C(=O)N[C@@H](CC(C)C)C(=O)N[C@H](CCCCN)C(=O)N[C@@H](CCCNC(=N)N)C(=O)N[C@@H](CCCCN)C(=O)O [SR-0379] (H-MLKLIFLHRLKRMRKRL[dK]RK-OH)
MIC E. coli (ATCC25922) [1]: 8 µg/mL (≈ 3 µM) | MIC S. aureus (ATCC29213) [2]: 16 µg/mL (≈ 6 µM) | MIC Micrococcus luteus [3]: 2 µg/mL (≈ 0.75 µM) | MIC Bacillus subtilis [4]: 2 µg/mL (≈ 0.75 µM) | MIC Salmonella Enteritidis [5]: 8 µg/mL (≈ 3 µM) | MIC Salmonella Typhimurium [6]: 8 µg/mL (≈ 3 µM) | MIC Acinetobacter baumannii [7]: 8 µg/mL (≈ 3 µM) | MIC Bacteroides fragilis [8]: 32 µg/mL (≈ 12 µM) | MIC Fusarium solani [9]: 8 µg/mL (≈ 3 µM) | MIC Alternaria alternata [10]: 32 µg/mL (≈ 12 µM) | MIC Trichophyton mentagrophytes [11]: 32 µg/mL (≈ 12 µM) | MIC Trichophyton rubrum [12]: 64 µg/mL (≈ 24 µM) | MIC Candida krusei [13]: 32 µg/mL (≈ 12 µM) | MIC Pseudomonas aeruginosa, Carbapenem-resistant [14]: 16 to 64 µg/mL | MIC Acinetobacter baumannii, Multidrug-resistant [15]: 16 µg/mL (≈ 6 µM) | Stability in human serum ([16]; human serum (pool of 5 men and 5 women) 300 μL): significantly improved | Stability in rat serum ([16]; rat serum 300 μL): significantly improved
